Common to all, as to experiment: Dundee kinase panel
Format in all cases: biochemical
Holding throughout (details): for remaining activity at 1 µM: read-out: residual activity

The target of one test is T1, SIK3 (Homo sapiens, UniProt Q9Y2K2).
T1 construct: lines 1-140) and Reaction Biology
As to the method: (§1) Compounds were screened at 1 μM. For key hits, pIC50 values were then determined by HTRF as above. […] Stability in mouse and human liver microsomes was determined by Cyprotex.

A further test concerns the target T2, PKCa (Homo sapiens, UniProt P17252).
T2 construct: lines 1-140) and Reaction Biology
As to the method:
as §1

The next test deals with T3, ERK8 (Homo sapiens, UniProt Q8TD08).
T3 construct: lines 1-140) and Reaction Biology
T3 sequence (Q8TD08 1-544): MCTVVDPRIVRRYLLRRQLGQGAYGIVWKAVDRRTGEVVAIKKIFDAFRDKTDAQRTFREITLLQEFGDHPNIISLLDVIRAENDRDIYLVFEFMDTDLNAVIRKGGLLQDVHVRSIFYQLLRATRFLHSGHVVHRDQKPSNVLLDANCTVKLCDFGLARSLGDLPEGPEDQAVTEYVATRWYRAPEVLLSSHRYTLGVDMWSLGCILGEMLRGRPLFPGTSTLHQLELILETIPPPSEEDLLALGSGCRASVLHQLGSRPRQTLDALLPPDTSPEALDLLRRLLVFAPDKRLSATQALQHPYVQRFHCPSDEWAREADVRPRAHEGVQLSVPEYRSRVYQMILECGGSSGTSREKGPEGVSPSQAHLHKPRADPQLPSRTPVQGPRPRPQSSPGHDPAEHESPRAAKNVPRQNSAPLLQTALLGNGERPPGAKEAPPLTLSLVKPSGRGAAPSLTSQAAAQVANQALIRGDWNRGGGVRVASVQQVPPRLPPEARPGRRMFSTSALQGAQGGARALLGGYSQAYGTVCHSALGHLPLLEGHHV
On the procedure: as §1

The target of another test is T4, SRPK1 (Homo sapiens, UniProt Q96SB4).
T4 construct: lines 1-140) and Reaction Biology
T4 sequence (Q96SB4 whole entry): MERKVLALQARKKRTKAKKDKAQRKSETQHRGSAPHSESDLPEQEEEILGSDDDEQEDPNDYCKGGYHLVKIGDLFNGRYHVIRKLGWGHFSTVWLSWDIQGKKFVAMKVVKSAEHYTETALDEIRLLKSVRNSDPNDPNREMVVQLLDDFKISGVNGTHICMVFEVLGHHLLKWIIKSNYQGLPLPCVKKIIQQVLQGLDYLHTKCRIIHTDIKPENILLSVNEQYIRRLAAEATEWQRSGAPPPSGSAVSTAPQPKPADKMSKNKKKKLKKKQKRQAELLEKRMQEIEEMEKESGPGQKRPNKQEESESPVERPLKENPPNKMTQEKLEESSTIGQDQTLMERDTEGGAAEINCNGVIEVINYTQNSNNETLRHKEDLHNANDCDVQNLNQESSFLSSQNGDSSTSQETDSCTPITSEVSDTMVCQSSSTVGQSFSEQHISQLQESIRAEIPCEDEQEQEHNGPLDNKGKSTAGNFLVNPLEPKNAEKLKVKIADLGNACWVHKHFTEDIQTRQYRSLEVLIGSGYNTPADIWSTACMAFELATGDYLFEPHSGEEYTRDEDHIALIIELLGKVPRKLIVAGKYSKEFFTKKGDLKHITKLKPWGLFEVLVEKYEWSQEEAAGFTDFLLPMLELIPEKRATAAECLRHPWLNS
As to the method:
as §1

For a further test, the target named is T5, EF2K (Homo sapiens, UniProt O00418).
T5 construct: lines 1-140) and Reaction Biology
T5 sequence (O00418 1-725): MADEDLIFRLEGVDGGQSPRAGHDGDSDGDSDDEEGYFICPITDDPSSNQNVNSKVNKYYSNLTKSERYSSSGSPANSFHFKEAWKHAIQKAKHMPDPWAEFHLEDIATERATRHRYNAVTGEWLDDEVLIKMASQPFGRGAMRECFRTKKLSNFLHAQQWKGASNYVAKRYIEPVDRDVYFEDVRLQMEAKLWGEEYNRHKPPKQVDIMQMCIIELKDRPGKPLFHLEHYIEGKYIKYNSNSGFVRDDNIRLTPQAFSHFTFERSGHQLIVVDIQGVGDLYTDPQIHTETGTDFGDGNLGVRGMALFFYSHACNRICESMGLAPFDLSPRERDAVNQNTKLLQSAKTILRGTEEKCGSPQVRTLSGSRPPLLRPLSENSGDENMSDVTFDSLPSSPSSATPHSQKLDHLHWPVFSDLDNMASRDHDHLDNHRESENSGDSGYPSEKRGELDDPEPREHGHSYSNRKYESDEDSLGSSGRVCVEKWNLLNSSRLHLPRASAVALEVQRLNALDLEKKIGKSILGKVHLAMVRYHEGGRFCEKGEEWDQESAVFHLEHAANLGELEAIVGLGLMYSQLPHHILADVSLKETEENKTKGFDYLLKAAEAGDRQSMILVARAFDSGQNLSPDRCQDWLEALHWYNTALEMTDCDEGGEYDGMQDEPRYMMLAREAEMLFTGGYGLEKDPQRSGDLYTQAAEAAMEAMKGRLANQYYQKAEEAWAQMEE
As to the method: as §1

Another test addresses T6, STK33 (Homo sapiens, UniProt Q9BYT3).
T6 construct: lines 1-140) and Reaction Biology
As to the method:
as §1

The target in a further test is T7, DDR2 (Homo sapiens, UniProt Q16832).
T7 construct: lines 1-140) and Reaction Biology
T7 sequence (Q16832 22-855): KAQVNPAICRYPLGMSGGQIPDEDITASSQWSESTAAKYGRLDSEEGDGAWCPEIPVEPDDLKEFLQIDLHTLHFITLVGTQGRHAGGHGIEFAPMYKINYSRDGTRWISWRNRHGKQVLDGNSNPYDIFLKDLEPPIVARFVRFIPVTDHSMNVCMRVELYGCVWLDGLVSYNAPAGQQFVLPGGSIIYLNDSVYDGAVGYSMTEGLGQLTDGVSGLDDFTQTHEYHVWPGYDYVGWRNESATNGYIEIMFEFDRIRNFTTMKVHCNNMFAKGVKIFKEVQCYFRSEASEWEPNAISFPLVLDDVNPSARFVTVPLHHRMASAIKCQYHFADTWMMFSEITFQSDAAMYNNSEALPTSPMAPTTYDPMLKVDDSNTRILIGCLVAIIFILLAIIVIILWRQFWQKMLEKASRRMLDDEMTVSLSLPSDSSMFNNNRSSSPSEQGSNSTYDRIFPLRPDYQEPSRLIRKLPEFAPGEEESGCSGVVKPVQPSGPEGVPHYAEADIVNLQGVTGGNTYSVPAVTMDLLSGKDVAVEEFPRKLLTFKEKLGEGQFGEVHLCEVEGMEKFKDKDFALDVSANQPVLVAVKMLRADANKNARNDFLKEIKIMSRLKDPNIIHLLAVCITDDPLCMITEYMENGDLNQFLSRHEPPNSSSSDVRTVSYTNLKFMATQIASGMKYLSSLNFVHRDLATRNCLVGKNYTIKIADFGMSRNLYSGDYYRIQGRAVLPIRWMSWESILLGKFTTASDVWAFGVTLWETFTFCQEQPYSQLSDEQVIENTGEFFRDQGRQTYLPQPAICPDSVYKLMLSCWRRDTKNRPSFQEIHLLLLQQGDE
On the procedure:
as §1

The target in a further test is T8, MELK (Homo sapiens, UniProt Q14680).
T8 construct: lines 1-140) and Reaction Biology
T8 sequence (Q14680 whole entry): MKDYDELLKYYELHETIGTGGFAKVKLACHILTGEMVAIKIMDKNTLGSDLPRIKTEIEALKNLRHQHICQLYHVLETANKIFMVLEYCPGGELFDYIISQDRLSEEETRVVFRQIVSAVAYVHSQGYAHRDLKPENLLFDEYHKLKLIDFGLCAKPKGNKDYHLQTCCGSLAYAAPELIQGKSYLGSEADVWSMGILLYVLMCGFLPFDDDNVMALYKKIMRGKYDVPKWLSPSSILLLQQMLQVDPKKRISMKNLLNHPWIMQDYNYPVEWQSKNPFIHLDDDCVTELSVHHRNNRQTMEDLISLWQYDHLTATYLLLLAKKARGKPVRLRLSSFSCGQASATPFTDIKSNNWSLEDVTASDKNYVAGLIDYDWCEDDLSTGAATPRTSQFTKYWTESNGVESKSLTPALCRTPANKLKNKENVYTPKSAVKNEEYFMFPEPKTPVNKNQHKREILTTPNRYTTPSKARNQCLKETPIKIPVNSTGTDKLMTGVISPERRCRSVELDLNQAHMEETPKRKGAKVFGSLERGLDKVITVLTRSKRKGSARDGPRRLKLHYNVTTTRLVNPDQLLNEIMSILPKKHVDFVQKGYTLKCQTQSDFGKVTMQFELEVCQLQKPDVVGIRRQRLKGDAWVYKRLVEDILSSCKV
As to the method: as §1

The residual activity is the signal under treatment as a percentage of the control signal.

T6 sequence (Q9BYT3 whole entry): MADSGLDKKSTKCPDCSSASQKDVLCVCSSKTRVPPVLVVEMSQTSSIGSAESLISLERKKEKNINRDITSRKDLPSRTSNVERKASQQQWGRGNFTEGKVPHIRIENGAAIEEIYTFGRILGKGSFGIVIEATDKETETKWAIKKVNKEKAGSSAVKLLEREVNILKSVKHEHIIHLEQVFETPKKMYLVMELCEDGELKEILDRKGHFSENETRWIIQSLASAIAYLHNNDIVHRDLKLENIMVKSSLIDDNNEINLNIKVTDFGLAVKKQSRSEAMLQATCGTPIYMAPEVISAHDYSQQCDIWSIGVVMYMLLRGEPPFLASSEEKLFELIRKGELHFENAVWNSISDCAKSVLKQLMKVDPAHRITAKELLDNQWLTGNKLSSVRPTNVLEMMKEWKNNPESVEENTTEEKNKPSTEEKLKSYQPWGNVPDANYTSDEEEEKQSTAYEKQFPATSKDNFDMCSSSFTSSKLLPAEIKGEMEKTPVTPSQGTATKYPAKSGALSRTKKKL
T1 sequence (Q9Y2K2 whole entry): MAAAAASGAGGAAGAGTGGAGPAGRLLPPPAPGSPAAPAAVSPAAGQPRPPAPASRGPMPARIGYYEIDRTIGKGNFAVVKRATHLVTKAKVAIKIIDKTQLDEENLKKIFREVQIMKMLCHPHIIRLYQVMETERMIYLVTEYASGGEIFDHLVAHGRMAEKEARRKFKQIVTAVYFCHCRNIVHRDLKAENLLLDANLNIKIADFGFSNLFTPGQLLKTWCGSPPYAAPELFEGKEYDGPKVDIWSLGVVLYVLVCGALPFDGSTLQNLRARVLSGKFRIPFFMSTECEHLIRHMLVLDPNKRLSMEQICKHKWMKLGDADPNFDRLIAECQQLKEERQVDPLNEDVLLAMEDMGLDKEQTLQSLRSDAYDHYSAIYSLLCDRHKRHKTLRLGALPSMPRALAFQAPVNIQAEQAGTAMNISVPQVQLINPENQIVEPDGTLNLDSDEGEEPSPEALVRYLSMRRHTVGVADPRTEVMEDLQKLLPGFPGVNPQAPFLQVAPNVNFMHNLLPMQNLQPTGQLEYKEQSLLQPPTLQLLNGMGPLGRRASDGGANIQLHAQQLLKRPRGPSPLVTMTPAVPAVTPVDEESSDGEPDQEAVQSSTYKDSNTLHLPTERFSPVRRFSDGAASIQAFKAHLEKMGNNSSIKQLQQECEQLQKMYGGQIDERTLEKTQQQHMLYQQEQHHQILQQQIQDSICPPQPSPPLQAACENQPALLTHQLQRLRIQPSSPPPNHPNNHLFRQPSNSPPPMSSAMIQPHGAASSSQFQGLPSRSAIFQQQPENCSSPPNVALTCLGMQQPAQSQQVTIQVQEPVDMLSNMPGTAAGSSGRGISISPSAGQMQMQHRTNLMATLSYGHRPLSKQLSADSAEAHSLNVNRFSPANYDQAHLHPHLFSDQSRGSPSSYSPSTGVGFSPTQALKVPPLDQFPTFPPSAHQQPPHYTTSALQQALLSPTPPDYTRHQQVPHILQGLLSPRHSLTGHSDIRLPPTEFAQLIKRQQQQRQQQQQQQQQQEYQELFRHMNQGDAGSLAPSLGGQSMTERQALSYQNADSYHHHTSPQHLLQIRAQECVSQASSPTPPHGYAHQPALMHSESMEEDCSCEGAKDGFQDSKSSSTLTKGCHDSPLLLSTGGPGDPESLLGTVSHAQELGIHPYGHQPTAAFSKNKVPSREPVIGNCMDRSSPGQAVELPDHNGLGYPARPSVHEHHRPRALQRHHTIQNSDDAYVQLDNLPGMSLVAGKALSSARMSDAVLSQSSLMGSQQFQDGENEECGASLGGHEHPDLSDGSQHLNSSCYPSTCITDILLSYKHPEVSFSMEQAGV

As to `COCCOc1ccc(-c2cn(-c3ccccc3)c3nc[nH]c(=O)c23)cc1` [DMX-5804, 5-[4-(2-methoxy-ethoxy)-phenyl]-7-phenyl-3,7-dihydro-pyrrolo[2,3-d]pyrimidin-4-one], the remaining activity at 1 µM was found to be 90% at SIK3; 116% at PKCa; 110% at ERK8; 91% on SRPK1; 104% at EF2K; 97% on STK33. Further, the remaining activity at 1 µM was 80% on DDR2 and 83% on MELK.
`Oc1ncnc2c1c(-c1ccccc1)cn2-c1ccccc1` [F1386-0303, 5,7-diphenyl-7H-pyrrolo[2,3-d]pyrimidin-4-ol]: the remaining activity at 1 µM at SIK3 amounted to 110%; at PKCa it was 70%; at ERK8, 109%; at SRPK1, 112%; on EF2K, 99%; on STK33, 99%. In addition, the remaining activity at 1 µM on DDR2 turned out to be 88%; at MELK it was 90%.
Regarding `Nc1ncc(C(=O)NC2CN(C(=O)C3CC3)C2)c2ccc(-c3cccc(F)c3)nc12` [GNE-495], the residual activity on SIK3 (1 μM) was found to be 87%; at PKCa (1 μM), 50%; at ERK8 (1 μM), 95%; at SRPK1 (1 μM), 105%; on EF2K (1 μM), 120%; on STK33 (1 μM) it was 94%. For the same compound, the values for the residual activity at DDR2 (1 μM) and on MELK (1 μM) were 109% and 82%, respectively.
As for `O=C1Nc2ccc(I)cc2/C1=C/c1cc(Br)c(O)c(Br)c1` [GW5074], the remaining activity at 1 µM was determined as 65% on SIK3; 85% at PKCa; 35% on ERK8; 8% at SRPK1; 57% on EF2K; 71% at STK33. The remaining activity at 1 µM at DDR2 came to 62%; on MELK, 48%.
In the case of `O=C1Cc2c([nH]c3ccc(Br)cc23)-c2ccccc2N1` [Kenpaullone], the remaining activity at 1 µM on SIK3 was 12%; at PKCa it was 94%; on ERK8, 46%; on SRPK1, 36%; on EF2K, 97%; on STK33, 92%. Moreover, the remaining activity at 1 µM at DDR2 was 88%; at MELK, 38%.

The record behind these values is PMC6458995, “MAP4K4 Inhibition Promotes Survival of Human Stem Cell-Derived Cardiomyocytes and Reduces Infarct Size In Vivo” (Cell Stem Cell, 2019).
